# Reference: PubChem BioAssay AID1259407 (Chemical Carcinogenesis Research Information System (CCRIS), 2018)
# Calls of active or inactive are those of the source. How the calls were made is not given here.
# Tested on: CCRIS mutagenicity, Ames/micronucleus/aberration tests
# Assay: CCRIS mutagenicity studies
# [1] = Test System: AMES SALMONELLA TYPHIMURIUM, Strain/Indicator: TA98, Metabolic Activation: NONE, Method: PREINCUBATION
# [2] = Test System: AMES SALMONELLA TYPHIMURIUM, Strain/Indicator: TA100, Metabolic Activation: NONE, Method: PREINCUBATION
# [3] = Test System: AMES SALMONELLA TYPHIMURIUM, Strain/Indicator: TA1535, Metabolic Activation: NONE, Method: STANDARD PLATE
# [4] = Test System: AMES SALMONELLA TYPHIMURIUM, Strain/Indicator: TA100, Metabolic Activation: NONE, Method: STANDARD PLATE
smiles,measurement,setting,value
CCc1ccccc1,mutagenic call,"Test System: AMES SALMONELLA TYPHIMURIUM, Strain/Indicator: TA97, Metabolic Activation: HAMSTER, LIVER, S-9, AROCLOR 1254, Method: PREINCUBATION",inactive; negative
same,mutagenic call,"Test System: AMES SALMONELLA TYPHIMURIUM, Strain/Indicator: TA97, Metabolic Activation: NONE, Method: PREINCUBATION",inactive; negative
same,mutagenic call,"Test System: AMES SALMONELLA TYPHIMURIUM, Strain/Indicator: TA97, Metabolic Activation: RAT, LIVER, S-9, AROCLOR 1254, Method: PREINCUBATION",inactive; negative
same,mutagenic call,"Test System: AMES SALMONELLA TYPHIMURIUM, Strain/Indicator: TA98, Metabolic Activation: HAMSTER LIVER S-9, AROCLOR 1254 (10 OR 30%), Method: PREINCUBATION",inactive; negative
same,mutagenic call,"Test System: AMES SALMONELLA TYPHIMURIUM, Strain/Indicator: TA98, Metabolic Activation: HAMSTER, LIVER, S-9, AROCLOR 1254, Method: PREINCUBATION",inactive; negative
same,mutagenic call,[1],inactive; negative
same,mutagenic call,"Test System: AMES SALMONELLA TYPHIMURIUM, Strain/Indicator: TA98, Metabolic Activation: RAT LIVER S-9, AROCLOR 1254 (10 OR 30%), Method: PREINCUBATION",inactive; negative
same,mutagenic call,"Test System: AMES SALMONELLA TYPHIMURIUM, Strain/Indicator: TA98, Metabolic Activation: RAT, LIVER, S-9, AROCLOR 1254, Method: PREINCUBATION",inactive; negative
same,mutagenic call,"Test System: AMES SALMONELLA TYPHIMURIUM, Strain/Indicator: TA100, Metabolic Activation: HAMSTER LIVER S-9, AROCLOR 1254 (10 OR 30%), Method: PREINCUBATION",inactive; negative
same,mutagenic call,"Test System: AMES SALMONELLA TYPHIMURIUM, Strain/Indicator: TA100, Metabolic Activation: HAMSTER, LIVER, S-9, AROCLOR 1254, Method: PREINCUBATION",inactive; negative
same,mutagenic call,[2],inactive; negative
same,mutagenic call,"Test System: AMES SALMONELLA TYPHIMURIUM, Strain/Indicator: TA100, Metabolic Activation: RAT LIVER S-9, AROCLOR 1254 (10 OR 30%), Method: PREINCUBATION",inactive; negative
same,mutagenic call,"Test System: AMES SALMONELLA TYPHIMURIUM, Strain/Indicator: TA100, Metabolic Activation: RAT, LIVER, S-9, AROCLOR 1254, Method: PREINCUBATION",inactive; negative
same,mutagenic call,"Test System: AMES SALMONELLA TYPHIMURIUM, Strain/Indicator: TA1535, Metabolic Activation: HAMSTER LIVER S-9, AROCLOR 1254 (10 OR 30%), Method: PREINCUBATION",inactive; negative
same,mutagenic call,"Test System: AMES SALMONELLA TYPHIMURIUM, Strain/Indicator: TA1535, Metabolic Activation: HAMSTER, LIVER, S-9, AROCLOR 1254, Method: PREINCUBATION",inactive; negative
same,mutagenic call,"Test System: AMES SALMONELLA TYPHIMURIUM, Strain/Indicator: TA1535, Metabolic Activation: NONE, Method: PREINCUBATION",inactive; negative
same,mutagenic call,"Test System: AMES SALMONELLA TYPHIMURIUM, Strain/Indicator: TA1535, Metabolic Activation: RAT LIVER S-9, AROCLOR 1254 (10 OR 30%), Method: PREINCUBATION",inactive; negative
same,mutagenic call,"Test System: AMES SALMONELLA TYPHIMURIUM, Strain/Indicator: TA1535, Metabolic Activation: RAT, LIVER, S-9, AROCLOR 1254, Method: PREINCUBATION",inactive; negative
same,mutagenic call,"Test System: AMES SALMONELLA TYPHIMURIUM, Strain/Indicator: TA1537, Metabolic Activation: HAMSTER LIVER S-9, AROCLOR 1254 (10 OR 30%), Method: PREINCUBATION",inactive; negative
same,mutagenic call,"Test System: AMES SALMONELLA TYPHIMURIUM, Strain/Indicator: TA1537, Metabolic Activation: NONE, Method: PREINCUBATION",inactive; negative
same,mutagenic call,"Test System: AMES SALMONELLA TYPHIMURIUM, Strain/Indicator: TA1537, Metabolic Activation: RAT LIVER S-9, AROCLOR 1254 (10 OR 30%), Method: PREINCUBATION",inactive; negative
same,mutagenic call,"Test System: MOUSE LYMPHOMA, Strain/Indicator: L5178Y (TK+/TK-), Metabolic Activation: NONE, Method: SUSPENSION/PLATE",active; positive
CNP(=S)(N1CC1)N1CC1,mutagenic call,"Test System: AMES SALMONELLA TYPHIMURIUM, Strain/Indicator: G46, Metabolic Activation: HOST MEDIATED, Method: STANDARD PLATE",active; positive
CN1CCN=N1,mutagenic call,[3],active; positive
O=[N+]([O-])c1ccc2c3c(cccc13)-c1ccccc1-2,mutagenic call,"Test System: AMES SALMONELLA TYPHIMURIUM, Strain/Indicator: TA97, Metabolic Activation: NONE",active; positive
same,mutagenic call,"Test System: AMES SALMONELLA TYPHIMURIUM, Strain/Indicator: TA98(1,8-DNP6), Metabolic Activation: NONE",active; positive
same,mutagenic call,"Test System: AMES SALMONELLA TYPHIMURIUM, Strain/Indicator: TA98(1,8-DNP6), Metabolic Activation: NONE, Method: STANDARD PLATE",active; positive
same,mutagenic call,"Test System: AMES SALMONELLA TYPHIMURIUM, Strain/Indicator: TA98(NR), Metabolic Activation: NONE",active; positive
same,mutagenic call,"Test System: AMES SALMONELLA TYPHIMURIUM, Strain/Indicator: TA98(NR), Metabolic Activation: NONE, Method: STANDARD PLATE",active; positive
same,mutagenic call,"Test System: AMES SALMONELLA TYPHIMURIUM, Strain/Indicator: TA98, Metabolic Activation: NONE",active; positive
same,mutagenic call,"Test System: AMES SALMONELLA TYPHIMURIUM, Strain/Indicator: TA98, Metabolic Activation: RAT, LIVER, S-9, AROCLOR 1254, Method: STANDARD PLATE",active; positive
same,mutagenic call,"Test System: AMES SALMONELLA TYPHIMURIUM, Strain/Indicator: TA100(NR), Metabolic Activation: NONE, Method: STANDARD PLATE",inactive; negative
same,mutagenic call,"Test System: AMES SALMONELLA TYPHIMURIUM, Strain/Indicator: TA100(TN5-1,8-DNP1012), Metabolic Activation: NONE, Method: STANDARD PLATE",inactive; negative
same,mutagenic call,"Test System: AMES SALMONELLA TYPHIMURIUM, Strain/Indicator: TA100, Metabolic Activation: NONE",active; positive
same,mutagenic call,[4],active; positive
same,mutagenic call,"Test System: AMES SALMONELLA TYPHIMURIUM, Strain/Indicator: TA1535, Metabolic Activation: NONE",inactive; negative
same,mutagenic call,"Test System: AMES SALMONELLA TYPHIMURIUM, Strain/Indicator: TA1537, Metabolic Activation: NONE",active; positive
same,mutagenic call,"Test System: AMES SALMONELLA TYPHIMURIUM, Strain/Indicator: TA1538, Metabolic Activation: NONE",active; positive
same,mutagenic call,"Test System: AMES SALMONELLA TYPHIMURIUM, Strain/Indicator: TA1978, Metabolic Activation: NONE",active; positive
same,mutagenic call,"Test System: AMES SALMONELLA TYPHIMURIUM, Strain/Indicator: TA7001, Metabolic Activation: NONE, Method: PREINCUBATION",active; positive
same,mutagenic call,"Test System: AMES SALMONELLA TYPHIMURIUM, Strain/Indicator: TA7002, Metabolic Activation: NONE, Method: PREINCUBATION",active; positive
same,mutagenic call,"Test System: AMES SALMONELLA TYPHIMURIUM, Strain/Indicator: TA7003, Metabolic Activation: NONE, Method: PREINCUBATION",active; positive
same,mutagenic call,"Test System: AMES SALMONELLA TYPHIMURIUM, Strain/Indicator: TA7004, Metabolic Activation: NONE, Method: PREINCUBATION",active; positive
same,mutagenic call,"Test System: AMES SALMONELLA TYPHIMURIUM, Strain/Indicator: TA7005, Metabolic Activation: NONE, Method: PREINCUBATION",active; positive
same,mutagenic call,"Test System: AMES SALMONELLA TYPHIMURIUM, Strain/Indicator: TA7006, Metabolic Activation: NONE, Method: PREINCUBATION",active; positive
same,mutagenic call,"Test System: AMES SALMONELLA TYPHIMURIUM, Strain/Indicator: TM677, Metabolic Activation: RAT, LIVER, S-9, AROCLOR 1254, Method: STANDARD PLATE",active; positive
CCOS(=O)(=O)c1ccc(C)cc1,mutagenic call,"End Point: IN VITRO MICRONUCLEUS, Test System: MOUSE LYMPHOMA L5178Y CELLS, Metabolic Activation: NONE",active; positive
same,mutagenic call,"End Point: IN VITRO MICRONUCLEUS, Test System: MOUSE LYMPHOMA L5178Y CELLS, Metabolic Activation: RAT, LIVER, S-9",active; positive
same,mutagenic call,"End Point: In vitro micronucleus, Test System: Chinese Hamster Ovary (CHO-WBL) cells, Metabolic Activation: None",active; positive (p<0.01)
same,mutagenic call,[4],inactive; negative; authors describe results as weakly positive
same,mutagenic call,"Test System: AMES SALMONELLA TYPHIMURIUM, Strain/Indicator: TA100, Metabolic Activation: RAT, LIVER, S-9, Method: STANDARD PLATE",inactive; negative; authors describe results as weakly positive
same,mutagenic call,[3],active; positive
same,mutagenic call,"Test System: UDS HUMAN FIBROBLASTS, Strain/Indicator: THY INCORP (NON-S-PHASE), Metabolic Activation: NONE, Method: LIQUID SCINTILLATION COUNTING",active; positive
CC(C)(C)OC(=O)N/N=C/c1c[n+]([O-])c2ccccc2[n+]1[O-],mutagenic call,[1],active; positive
same,mutagenic call,"Test System: AMES SALMONELLA TYPHIMURIUM, Strain/Indicator: TA98, Metabolic Activation: S-9, Method: PREINCUBATION",active; positive
same,mutagenic call,[2],active; positive
same,mutagenic call,"Test System: AMES SALMONELLA TYPHIMURIUM, Strain/Indicator: TA100, Metabolic Activation: S-9, Method: PREINCUBATION",active; positive
same,mutagenic call,"Test System: E. COLI, Strain/Indicator: WP2 UVRA (PKM101), Metabolic Activation: NONE",active; positive
same,mutagenic call,"Test System: E. COLI, Strain/Indicator: WP2 UVRA (PKM101), Metabolic Activation: S-9",active; positive
